Results published in patent US20230227466A1, “SUBSTITUTED THIENOPYRIMIDINES THAT INTERACT WITH THE RAS SUPERFAMILY FOR THE TREATMENT OF CANCERS, INFLAMMATORY DISEASES, RASOPATHIES, AND FIBROTIC DISEASE” (SHY Therapeutics, LLC, priority 2020, published 2023).
Where two headings read alike, the source gives them in different places.

Key:
[1] = system: ERK1/2 phosphorylation in Panc-1 cells; experiment: Western ERK1/2 cell-based phosphorylation assay; design: species or system human; settings: at 10 μM, values in brackets < > are activation %, not inhibition
Description: Cell lines: Human tumor-derived pancreatic cancer cell line Panc-1 was purchased from American Type Culture Collection and grown in complete DMEM-High Glucose, supplemented with penicillin (100 U/mL), streptomycin (100 μg/mL), and 10% heat-inactivated FBS at 37° C. in a humidified incubator with 5% CO2.
Method: Cells were plated at 350000 cells/well density in a 12-well plate, allowed 3 hours to adhere to the plate, then starved in the appropriate medium in the presence of 0.5% FBS overnight. The small molecules to be tested were added to the cells in the final concentration of 10 μM in the presence of 0.3% DMSO for 6 hours incubation at 37° C. For IC50 value determination, serial dilutions of compounds were added to cells under the same conditions. Next, cells were stimulated with 1.5 ng/ml EGF for 15 minutes then cells were lysed with lysis buffer containing 1% Triton X-100, EDTA, and Halt™ Protease & Phosphatase Inhibitor Cocktail (Thermo Scientific). Protein concentration was assessed by BCA protein assay (Thermo Scientific). Phosphorylation level of ERK1/2 was determined by western blot.
Western blot protocol: Equal amounts of protein (15-50 μg) were separated by SDS-PAGE and transferred to nitrocellulose membranes (Invitrogen by Thermo Fisher Scientific). The membrane was stained with Ponceau S Stain (Boston BioProducts) to verify uniform protein loading. Membranes were blocked with 10% milk and phosphorylation levels of ERK1/2 were assessed by incubating overnight at 4° C. with anti-phospho-p44/42 (Thr202/Tyr204) antibody (Cell Signaling) followed by HRP-conjugated secondary antibody (Jackson Immunoresearch, West Grove, Pa.). Bands were incubated in Amersham ECL Prime Western Blotting Detection Reagent (GE Healthcare) and visualized using the ChemiDoc MP imaging system (Bio-Rad). Protocol for Western AKT cell-based phosphorylation assay

[2] = system: MIA-PaCa-2 pancreatic cancer cell line (KRAS G12C); experiment: Cell proliferation assay (CellTiter 96 Aqueous One); type: cell-based; settings: Homo sapiens; for IC50: MIA PaCa-2, MIA PaCa-2; for inhibition at 10 µM: MIA PaCa-2, read-out: % inh cell proliferation (10 μM) in MIA PaCa-2
How it was run: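 Read-out is MTS-based viability (CellTiter 96 Aqueous One) after 2–4 days of compound exposure at 37 °C in 10% FBS with 0.3% DMSO.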

KRas wild type = KRas wild type (Homo sapiens, UniProt P01116); experiment: Ras GTP binding domain inhibition assay (labeled-GTP competition, cell-free); design: made in house
How it was run: (§1)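 First, the His-tagged protein was captured overnight at 4° C on nickel wells. Second, compound was applied at 20 μM or as a dilution series for IC50 over 3 h. Third, 100 nM Cy3- or Cy5-GTP was added for 45 min. Finally, wells were washed and bound label quantified.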

Rac-1 = Rac-1 (Homo sapiens, UniProt P63000); experiment: as above; design: made in house
How it was run: as §1

Rho-A = Rho-A (Homo sapiens, UniProt P61586); experiment: as above; design: made in house
How it was run: as §1

[3] = with SOS, read-out: KRas wild type + SOS: % inh.
[4] = without SOS, read-out: KRas wild type: % inh.
[5] = without SOS, read-out: Rac-1: % inh.
[6] = without SOS, read-out: Rho-A: % inh.
[7] = with SOS, read-out: Rac-1 + SOS: % inh.
[8] = with SOS, read-out: Rho-A + SOS: % inh.

IC50 [2] | inhibition at 20 µM (KRas wild type; [3]) | inhibition at 20 µM (KRas wild type; [4]) | inhibition at 20 µM (Rac-1; [5]) | inhibition at 20 µM (Rho-A; [6]) | inhibition at 20 µM (Rac-1; [7]) | inhibition at 20 µM (Rho-A; [8]) | SMILES | % inh of ERK1/2 phosphorylation in PANC-1 [1] | inhibition at 10 µM [2]
< 1 µM | 51 to 75% | 51 to 75% | 1 to 25% | 26 to 50% |  |  | COCC1CCN(c2nc(-c3nccn3C)nc3sc(-c4ccn(C(C)C)n4)c(-c4ccccc4)c23)C1 (racemic) [Compound 76, Rac-6-(1-isopropyl-1H-pyrazol-3-yl)-4-(3-(methoxymethyl)pyrrolidin-1-yl)-2-(1-methyl-1H-imidazol-2-yl)-5-phenylthieno[2,3-d]pyrimidine] | D (76-100% inhibition) | 76 to 100%
> 10 µM | 1 to 25% | 0% | 1 to 25% | 1 to 25% | 0% | 1 to 25% | CO[C@H]1CC[C@@H](Nc2nc(C(=O)NC(C)C)nc3sccc23)C1 (racemic) [Compound 13, Rac-N-isopropyl-4-(((1R,3S)-3-methoxycyclopentyl)amino)thieno[2,3-d]pyrimidine-2-carboxamide] | 0 (0% inhibition) | 0%
5 to 10 µM | 51 to 75% | 76 to 100% | 51 to 75% | 76 to 100% | 51 to 75% | 76 to 100% | CO[C@H]1CN(c2nc(-c3nccn3C)nc3sc(-c4ccn(C(C)C)n4)c(C)c23)C[C@H]1OC [Compound 39, rac-4-((3S,4R)-3,4-Dimethoxypyrrolidin-1-yl)-6-(1-isopropyl-1H-pyrazol-3-yl)-5-methyl-2-(1-methyl-1H-imidazol-2-yl)thieno[2,3-d]pyrimidine] | 0 (0% inhibition) | 76 to 100%
1 to 4.99 µM | 76 to 100% | 76 to 100% | 76 to 100% | 76 to 100% |  |  | COc1ccnc(Nc2nc(-c3nccn3C)nc3sc(-c4ccn(C(C)C)n4)c(C)c23)n1 [Compound 68, 6-(1-Isopropyl-1H-pyrazol-3-yl)-N-(4-methoxypyrimidin-2-yl)-5-methyl-2-(1-methyl-1H-imidazol-2-yl)thieno[2,3-d]pyrimidin-4-amine] | C (51-75% inhibition) | 76 to 100%
> 10 µM | 1 to 25% | 51 to 75% | 26 to 50% | 26 to 50% | 26 to 50% | 26 to 50% | CC(C)NC(=O)c1nc(O)c2scc(-c3ccccn3)c2n1 [Compound 20, 4-Hydroxy-N-isopropyl-7-(pyridin-2-yl)thieno[3,2-d]pyrimidine-2-carboxamide] | 0 (0% inhibition) | 1 to 25%
< 1 µM | 76 to 100% | 76 to 100% | 26 to 50% | 51 to 75% |  |  | CO[C@@H]1CC[C@H]1CNc1nc(-c2nccn2C)nc2sc(-c3ccn(C(C)C)n3)c(C)c12 (racemic) [Compound 61, rac-6-(1-Isopropyl-1H-pyrazol-3-yl)-N-(((1S,2R)-2-methoxycyclobutyl)methyl)-5-methyl-2-(1-methyl-1H-imidazol-2-yl)thieno[2,3-d]pyrimidin-4-amine] | D (76-100% inhibition) | 76 to 100%
> 10 µM | 51 to 75% | 51 to 75% | 51 to 75% | 76 to 100% |  |  | Cc1c(-c2ccn(C(C)C)n2)sc2nc(-c3nccn3C)nc(NC[C@@H]3CCC(=O)N3)c12 [Compound 51] | 0 (0% inhibition) | 0%
< 1 µM | 51 to 75% | 51 to 75% | 1 to 25% | 76 to 100% |  |  | Cc1c(-c2ccn(C(C)C)n2)sc2nc(-c3nccn3C)nc(N3CCC(COC(C)C)C3)c12 (racemic) [Compound 62, rac-4-(3-(Isopropoxymethyl)pyrrolidin-1-yl)-6-(1-isopropyl-1H-pyrazol-3-yl)-5-methyl-2-(1-methyl-1H-imidazol-2-yl)thieno[2,3-d]pyrimidine] | D (76-100% inhibition) | 76 to 100%
> 10 µM | 76 to 100% | 76 to 100% | 76 to 100% | 76 to 100% |  |  | Cc1c(-c2ccn(C(C)C)n2)sc2nc(-c3nccn3C)nc(NCCC3CCC(=O)N3)c12 (racemic) [Compound 56, rac-5-(2-((6-(1-Isopropyl-1H-pyrazol-3-yl)-5-methyl-2-(1-methyl-1H-imidazol-2-yl)thieno[2,3-d]pyrimidin-4-yl)amino)ethyl)pyrrolidin-2-one] | 0 (0% inhibition) | 1 to 25%
5 to 10 µM | 51 to 75% | 26 to 50% | 1 to 25% | 26 to 50% |  |  | COc1cc(Nc2nc(-c3nccn3C)nc3sc(-c4ccn(C(C)C)n4)c(C)c23)ccn1 [Compound 67, 6-(1-Isopropyl-1H-pyrazol-3-yl)-N-(2-methoxypyridin-4-yl)-5-methyl-2-(1-methyl-1H-imidazol-2-yl)thieno[2,3-d]pyrimidin-4-amine] | 0 (0% inhibition) | 76 to 100%
> 10 µM | 1 to 25% | 26 to 50% | 26 to 50% | 51 to 75% | 26 to 50% | 26 to 50% | COCCNC(=O)c1nc(O)c2scc(-c3ccccn3)c2n1 [Compound 21, 4-Hydroxy-N-(2-methoxyethyl)-7-(pyridin-2-yl)thieno[3,2-d]pyrimidine-2-carboxamide] | 0 (0% inhibition) | 1 to 25%
< 1 µM | 51 to 75% | 76 to 100% | 26 to 50% | 51 to 75% | 26 to 50% | 76 to 100% | CO[C@H]1C[C@H](CNc2nc(-c3nccn3C)nc3sc(-c4ccn(C(C)C)n4)c(C)c23)C1 [Compound 48, 6-(1-Isopropyl-1H-pyrazol-3-yl)-N-(((1r,3r)-3-methoxycyclobutyl)methyl)-5-methyl-2-(1-methyl-1H-imidazol-2-yl)thieno[2,3-d]pyrimidin-4-amine] | D (76-100% inhibition) | 76 to 100%
< 1 µM | 76 to 100% | 76 to 100% | 51 to 75% | 76 to 100% | 51 to 75% | 76 to 100% | COC1CCCN(c2nc(-c3nccn3C)nc3sc(-c4ccn(C(C)C)n4)c(C)c23)C1 (racemic) [Compound 40, rac-6-(1-Isopropyl-1H-pyrazol-3-yl)-4-(3-methoxypiperidin-1-yl)-5-methyl-2-(1-methyl-1H-imidazol-2-yl)thieno[2,3-d]pyrimidine] | D (76-100% inhibition) | 76 to 100%
